{
  "source": "paper PMC8201443",
  "about": "(Journal of Medicinal Chemistry, 2021)",
  "key": {"[1]": {"test_system": "MV4-11 cells", "experiment": "Cell viability", "type": "cell-based, human", "conditions": "for activity in cells (in words): cellular assays of Table 2; for EC50: Homo sapiens"}, "[2]": {"test_system": "MB002 cells", "experiment": "Cell viability", "type": "cell-based", "conditions": "Homo sapiens, MB002, 72 h, read-out: EC50 (nM) MB002"}, "[3]": {"test_system": "MV4-11, MHH-CALL-4, HD-MB03, MB002 and MB004 cells", "type": "cell-based, human"}, "[4]": {"target": "T1, IKZF1 (Homo sapiens, UniProt Q13422)", "T1 sequence (Q96SW2 whole entry partner)": "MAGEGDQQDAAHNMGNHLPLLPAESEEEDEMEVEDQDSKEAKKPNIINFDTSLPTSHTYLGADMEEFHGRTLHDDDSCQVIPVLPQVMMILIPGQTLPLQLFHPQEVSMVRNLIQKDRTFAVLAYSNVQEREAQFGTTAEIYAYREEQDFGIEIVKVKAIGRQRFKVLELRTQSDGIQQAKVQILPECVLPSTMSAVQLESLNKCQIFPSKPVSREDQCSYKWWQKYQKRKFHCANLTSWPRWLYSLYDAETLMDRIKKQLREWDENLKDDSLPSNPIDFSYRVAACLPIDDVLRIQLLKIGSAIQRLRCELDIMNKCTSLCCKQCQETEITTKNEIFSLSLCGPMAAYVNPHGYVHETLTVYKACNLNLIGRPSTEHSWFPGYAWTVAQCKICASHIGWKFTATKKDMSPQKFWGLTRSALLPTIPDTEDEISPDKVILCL", "T1 sequence (Q16531 whole entry partner)": "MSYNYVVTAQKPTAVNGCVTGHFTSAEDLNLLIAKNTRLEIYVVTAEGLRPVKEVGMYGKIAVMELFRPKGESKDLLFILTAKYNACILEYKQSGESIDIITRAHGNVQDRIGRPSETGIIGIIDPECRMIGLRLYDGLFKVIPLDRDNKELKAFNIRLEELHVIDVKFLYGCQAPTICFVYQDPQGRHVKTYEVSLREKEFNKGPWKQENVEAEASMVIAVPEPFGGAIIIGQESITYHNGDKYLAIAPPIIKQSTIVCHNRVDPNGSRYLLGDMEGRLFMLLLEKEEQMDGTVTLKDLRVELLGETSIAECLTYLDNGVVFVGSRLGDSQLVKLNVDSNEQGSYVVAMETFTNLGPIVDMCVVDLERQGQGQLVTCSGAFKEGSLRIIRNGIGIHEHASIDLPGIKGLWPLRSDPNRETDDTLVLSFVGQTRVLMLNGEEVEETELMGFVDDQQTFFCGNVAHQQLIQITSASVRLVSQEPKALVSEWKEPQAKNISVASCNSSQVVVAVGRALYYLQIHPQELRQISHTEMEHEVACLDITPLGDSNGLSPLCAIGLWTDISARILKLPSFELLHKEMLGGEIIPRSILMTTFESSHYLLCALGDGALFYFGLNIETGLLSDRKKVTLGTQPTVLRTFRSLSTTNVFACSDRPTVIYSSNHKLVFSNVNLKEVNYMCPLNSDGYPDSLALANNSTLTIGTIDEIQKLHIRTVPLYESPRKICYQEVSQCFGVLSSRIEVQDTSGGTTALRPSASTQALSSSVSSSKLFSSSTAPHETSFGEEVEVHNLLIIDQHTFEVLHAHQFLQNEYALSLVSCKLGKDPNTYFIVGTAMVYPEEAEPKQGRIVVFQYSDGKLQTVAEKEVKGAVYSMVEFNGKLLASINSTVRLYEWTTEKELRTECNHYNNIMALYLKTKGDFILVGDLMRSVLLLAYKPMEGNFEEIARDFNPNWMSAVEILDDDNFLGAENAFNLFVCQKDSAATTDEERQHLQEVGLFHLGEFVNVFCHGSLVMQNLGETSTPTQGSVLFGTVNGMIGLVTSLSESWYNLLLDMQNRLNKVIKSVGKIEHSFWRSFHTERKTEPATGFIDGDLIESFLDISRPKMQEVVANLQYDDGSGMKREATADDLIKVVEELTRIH", "T1 sequence (Q13422 whole entry)": "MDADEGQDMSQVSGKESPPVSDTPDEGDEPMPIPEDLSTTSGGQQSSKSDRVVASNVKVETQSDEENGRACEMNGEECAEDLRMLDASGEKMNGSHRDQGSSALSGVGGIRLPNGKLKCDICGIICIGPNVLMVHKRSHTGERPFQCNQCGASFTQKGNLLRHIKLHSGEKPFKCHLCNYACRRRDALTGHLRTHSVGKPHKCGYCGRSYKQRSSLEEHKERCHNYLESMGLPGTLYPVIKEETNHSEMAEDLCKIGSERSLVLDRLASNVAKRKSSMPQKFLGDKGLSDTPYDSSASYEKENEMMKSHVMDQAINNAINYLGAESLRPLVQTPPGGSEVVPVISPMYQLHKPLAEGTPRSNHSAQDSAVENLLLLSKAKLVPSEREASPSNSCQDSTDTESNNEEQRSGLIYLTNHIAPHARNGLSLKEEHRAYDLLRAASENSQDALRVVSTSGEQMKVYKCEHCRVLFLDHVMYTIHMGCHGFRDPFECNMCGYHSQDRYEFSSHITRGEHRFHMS", "experiment": "Immunoblot, IKZF1 degradation in MHH-CALL-4 cells", "type": "cell-based", "conditions": "any concentration tested"}, "[5]": {"target": "IKZF1(ZF2)-CRBN/DDB1 (Homo sapiens, UniProt Q96SW2)", "sequence (Q96SW2 40-442 limits assumed)": "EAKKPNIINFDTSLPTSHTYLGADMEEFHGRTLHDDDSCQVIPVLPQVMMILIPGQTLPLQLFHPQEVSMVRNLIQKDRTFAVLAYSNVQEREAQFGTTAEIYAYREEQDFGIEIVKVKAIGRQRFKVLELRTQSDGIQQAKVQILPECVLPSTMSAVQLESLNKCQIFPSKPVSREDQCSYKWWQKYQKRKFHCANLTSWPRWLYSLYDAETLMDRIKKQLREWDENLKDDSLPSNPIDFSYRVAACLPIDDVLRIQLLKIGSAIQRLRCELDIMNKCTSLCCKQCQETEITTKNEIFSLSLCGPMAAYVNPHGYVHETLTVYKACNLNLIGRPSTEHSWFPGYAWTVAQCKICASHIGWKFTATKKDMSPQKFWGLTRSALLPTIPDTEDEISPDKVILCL", "sequence (Q16531 whole entry partner)": "as the sequence (Q16531 whole entry partner) above", "experiment": "AlphaScreen assay, IKZF1", "type": "biochemical", "conditions": "dose response up to highest concentration"}, "[6]": {"test_system": "MV4-11 cells", "experiment": "Lenalidomide competition assay, MV4-11 viability", "type": "cell-based, human", "conditions": "MV4-11, co-treatment with 10 μM lenalidomide, 3 days"}, "[7]": {"test_system": "CRBN knockout MV4-11 cells", "experiment": "Cell viability, wild-type vs CRBN knockout MV4-11 cells", "type": "cell-based, human", "conditions": "3 days"}, "[8]": {"test_system": "MV4-11 cells stably expressing GSPT1(G575N)-FLAG", "type": "cell-based, human"}, "[9]": {"target": "GSPT1(G575N) (Homo sapiens, UniProt P15170, G437N)", "sequence (Q96SW2 whole entry partner)": "as the sequence (Q96SW2 whole entry partner) above", "sequence (Q16531 whole entry partner)": "as the sequence (Q16531 whole entry partner) above", "sequence (P15170 1-637 isoform P15170-3 G575N)": "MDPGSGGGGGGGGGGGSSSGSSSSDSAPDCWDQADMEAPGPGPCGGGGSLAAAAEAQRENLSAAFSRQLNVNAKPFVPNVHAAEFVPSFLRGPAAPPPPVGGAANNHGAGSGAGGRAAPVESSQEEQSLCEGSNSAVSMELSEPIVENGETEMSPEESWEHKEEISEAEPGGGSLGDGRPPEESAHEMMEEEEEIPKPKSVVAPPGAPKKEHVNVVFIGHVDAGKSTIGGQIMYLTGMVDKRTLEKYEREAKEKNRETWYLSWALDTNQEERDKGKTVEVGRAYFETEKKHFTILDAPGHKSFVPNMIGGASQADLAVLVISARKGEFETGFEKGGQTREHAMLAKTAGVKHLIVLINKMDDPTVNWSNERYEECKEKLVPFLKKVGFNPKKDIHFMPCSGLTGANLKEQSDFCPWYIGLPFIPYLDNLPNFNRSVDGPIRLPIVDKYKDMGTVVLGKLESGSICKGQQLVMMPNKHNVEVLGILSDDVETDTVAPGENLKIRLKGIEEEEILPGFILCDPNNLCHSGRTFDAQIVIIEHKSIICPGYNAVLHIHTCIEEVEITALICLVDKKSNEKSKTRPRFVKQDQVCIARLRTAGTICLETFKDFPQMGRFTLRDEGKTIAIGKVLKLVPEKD", "type": "cell-based"}, "[10]": {"test_system": "caspase 3/7", "experiment": "Caspase-Glo 3/7 activity assay in MV4-11 cells", "type": "cell-based, human", "conditions": "MV4-11, 10 and 100 nM; timepoints 4, 8 and 24 h"}, "[11]": {"test_system": "MV4-11 cells", "experiment": "TMT quantitative proteomics in MV4-11 cells", "type": "cell-based, human", "conditions": "1 μM, 4 h"}, "[12]": {"experiment": "Liver microsomes stability assay, mouse", "type": "in vitro ADME", "conditions": "CD-1, mouse, pH 7.4"}, "[13]": {"experiment": "Liver microsomes stability assay, human", "type": "in vitro ADME", "conditions": "pooled liver microsomes, pH 7.4"}, "[14]": {"target": "T1, IKZF1", "conditions": "for IKZF1 protein levels in GSPT1(G575N) mutant cell line (in words): MV4-11 GSPT1(G575N)-FLAG cells, 24 h; for IKZF1 degradation after 4 h (in words): MV4-11 cells, any concentration tested"}, "[15]": {"target": "hGSPT1-HiBit (Homo sapiens, UniProt P15170+Q96SW2)", "sequence (P15170 1-637 isoform P15170-3)": "as the sequence (P15170 1-637 isoform P15170-3 G575N) above, with N575G counted along it", "sequence (Q96SW2 whole entry)": "as the sequence (Q96SW2 whole entry partner) above", "sequence (Q16531 whole entry partner)": "as the sequence (Q16531 whole entry partner) above", "experiment": "hGSPT1 HiBiT assay in HEK293 cells", "type": "cell-based", "conditions": "SAR discussion of Table 2"}, "[16]": {"target": "GSPT1 (Homo sapiens, UniProt P15170+Q96SW2)", "sequence (P15170 1-637 isoform P15170-3)": "as the sequence (P15170 1-637 isoform P15170-3 G575N) above, with N575G counted along it", "sequence (Q96SW2 whole entry)": "as the sequence (Q96SW2 whole entry partner) above", "sequence (Q16531 whole entry partner)": "as the sequence (Q16531 whole entry partner) above", "experiment": "Immunoblot, GSPT1 degradation in MV4-11 cells", "type": "cell-based", "conditions": "MV4-11, 4 h"}, "[17]": {"conditions": "more potent than lenalidomide; cited from earlier work"}},
  "note": "Entries after “also recorded” stand apart in the source; their conditions may differ. Where two headings read alike, the source gives them in different places.",
  "data": [
    {"smiles": "Cc1ccccc1S(=O)(=O)Nc1ccc2c(c1)C(=O)N(C1CCC(=O)NC1=O)C2=O", "note": "(stereo not shown) [compound 13, N-(2-(2,6-Dioxopiperidin-3-yl)-1,3-dioxoisoindolin-5-yl)-2-methylbenzenesulfonamide]", "values": [
      {"measurement": "activity in cells (in words)", "setting": "[1]", "value": "lack of potent cell activity"}
    ]},
    {"smiles": "O=C1CCC(N2C(=O)c3ccc(NS(=O)(=O)c4ccccc4OC(F)(F)F)cc3C2=O)C(=O)N1", "note": "(stereo not shown) [compound 6, N-(2-(2,6-Dioxopiperidin-3-yl)-1,3-dioxoisoindolin-5-yl)-2-(trifluoromethoxy)benzenesulfonamide]", "values": [
      {"measurement": "activity in cells (in words)", "setting": "[1]", "value": "most potent compound in the series"},
      {"measurement": "EC50", "setting": "[2]", "value": 726, "unit": "nM"},
      {"measurement": "antiproliferative effect across the five cell lines (in words)", "setting": "[3]", "value": "demonstrated antiproliferative activities across the panel"},
      {"measurement": "IKZF1 degradation after 4 h (in words)", "setting": "[4]", "value": "did not significantly degrade IKZF1"},
      {"measurement": "IKZF1(ZF2)-CRBN/DDB1 complex formation, AlphaScreen signal (in words)", "setting": "[5]", "value": "neither 6 nor 7 showed a signal; also recorded: showed no effect even at the highest concentration"},
      {"measurement": "antiproliferative effect in the presence of lenalidomide (in words)", "setting": "[6]", "value": "abrogating the antiproliferative effects"},
      {"measurement": "antiproliferative activity in the absence of CRBN (in words)", "setting": "[7]", "value": "abolished"},
      {"measurement": "antiproliferation effect in cells expressing GSPT1(G575N) (in words)", "setting": "[8]", "value": "completely abrogated"},
      {"measurement": "degradation of GSPT1(G575N) mutant (in words)", "setting": "[9]", "value": "not degraded"},
      {"measurement": "timepoint at which caspase activation was observed", "setting": "[10]", "value": 8, "unit": "h"},
      {"measurement": "abundance of CNTNAP4 and SERPINF1 (in words)", "setting": "[11]", "value": "less pronounced but statistically significant reductions"},
      {"measurement": "abundance of IMiD neosubstrates IKZF1/3 and CK1α (in words)", "setting": "[11]", "value": "not affected"},
      {"measurement": "proteins most reduced in abundance (in words)", "setting": "[11]; 8927 quantified proteins", "value": "reduced most potently and selectively abundance of GSPT1 and GSPT2"},
      {"measurement": "CLint scaled at 4 h, 10 µM", "setting": "[12]", "value": 12, "unit": "mL/min/kg"},
      {"measurement": "CLint scaled at 4 h, 10 µM", "setting": "[13]", "value": 4, "unit": "mL/min/kg"},
      {"measurement": "IKZF1 protein levels in GSPT1(G575N) mutant cell line (in words)", "setting": "[14]", "value": "unaffected"},
      {"measurement": "IKZF1 degradation after 4 h (in words)", "setting": "[14]", "value": "did not significantly degrade IKZF1"}
    ]},
    {"smiles": "O=C1CCC(N2C(=O)c3ccc(NS(=O)(=O)c4ccccc4C(F)(F)F)cc3C2=O)C(=O)N1", "note": "(stereo not shown) [compound 14, N-(2-(2,6-Dioxopiperidin-3-yl)-1,3-dioxoisoindolin-5-yl)-2-(trifluoromethyl)benzenesulfonamide]", "values": [
      {"measurement": "GSPT1 degradation (in words)", "setting": "[15]", "value": "potent degrader of GSPT1"}
    ]},
    {"smiles": "Nc1cccc2c1CN(C1CCC(=O)NC1=O)C2=O", "note": "(stereo not shown) [lenalidomide]", "values": [
      {"measurement": "antiproliferative effect across the five cell lines (in words)", "setting": "[3]", "value": "insensitive"}
    ]},
    {"smiles": "O=C1CCC(N2C(=O)c3ccc(NS(=O)(=O)c4cccc(OC(F)(F)F)c4)cc3C2=O)C(=O)N1", "note": "(stereo not shown) [compound 10, N-(2-(2,6-Dioxopiperidin-3-yl)-1,3-dioxoisoindolin-5-yl)-3-(trifluoromethoxy)benzenesulfonamide]", "values": [
      {"measurement": "activity in cells (in words)", "setting": "[1]", "value": "no activity in cells"},
      {"measurement": "effect on GSPT1 protein level (in words)", "setting": "[16]", "value": "no effects on the protein levels"},
      {"measurement": "effect on IKZF1 protein level (in words)", "setting": "[14]; immunoblot, MV4-11, 4 h", "value": "no effects on the protein levels"}
    ]},
    {"smiles": "O=C1CCC(N2C(=O)c3ccccc3C2=O)C(=O)N1", "note": "(stereo not shown) [thalidomide]", "values": [
      {"measurement": "antiproliferative effect across the five cell lines (in words)", "setting": "[3]", "value": "insensitive"}
    ]},
    {"smiles": "O=C1CCC(N2C(=O)c3ccc(NS(=O)(=O)c4ccc(OC(F)(F)F)cc4)cc3C2=O)C(=O)N1", "note": "(stereo not shown) [compound 11, N-(2-(2,6-Dioxopiperidin-3-yl)-1,3-dioxoisoindolin-5-yl)-4-(trifluoromethoxy)benzenesulfonamide]", "values": [
      {"measurement": "activity in cells (in words)", "setting": "[1]", "value": "no activity in cells"}
    ]},
    {"smiles": "Nc1cccc2c1C(=O)N(C1CCC(=O)NC1=O)C2=O", "note": "(stereo not shown) [pomalidomide]", "values": [
      {"measurement": "antiproliferative effect across the five cell lines (in words)", "setting": "[3]", "value": "insensitive"}
    ]},
    {"smiles": "Cc1ccc(NC(=O)NCc2ccc3c(c2)CN(C2CCC(=O)NC2=O)C3=O)cc1Cl", "note": "(stereo not shown) [CC-885]", "values": [
      {"measurement": "antiproliferative effect across the five cell lines (in words)", "setting": "[3]", "value": "displayed antiproliferative effects in all five cell lines"}
    ]},
    {"smiles": "O=C1CC[C@H](N2Cc3c(OCc4ccc(CN5CCOCC5)cc4)cccc3C2=O)C(=O)N1", "note": "[CC-220, reference compound]", "values": [
      {"measurement": "IKZF1(ZF2)-CRBN/DDB1 complex formation, AlphaScreen signal (in words)", "setting": "[5]", "value": "strong dose response; also recorded: dose-dependent AlphaScreen signal"},
      {"measurement": "potency in cells relative to lenalidomide", "setting": "[17]", "value": 10, "unit": "fold"}
    ]},
    {"smiles": "O=C1CCC(N2C(=O)c3ccc(NS(=O)(=O)c4ccccc4)cc3C2=O)C(=O)N1", "note": "(stereo not shown) [compound 8, N-(2-(2,6-Dioxopiperidin-3-yl)-1,3-dioxoisoindolin-5-yl)benzenesulfonamide]", "values": [
      {"measurement": "activity in cells (in words)", "setting": "[1]", "value": "inactive"}
    ]},
    {"smiles": "O=C1CCC(N2C(=O)c3ccc(NS(=O)(=O)c4cccc(Cl)c4)cc3C2=O)C(=O)N1", "note": "(stereo not shown) [compound 15, 3-Chloro-N-(2-(2,6-dioxopiperidin-3-yl)-1,3-dioxoisoindolin-5-yl)benzenesulfonamide]", "values": [
      {"measurement": "activity in cells (in words)", "setting": "[1]", "value": "lack of potent cell activity"}
    ]},
    {"smiles": "COc1ccccc1S(=O)(=O)Nc1ccc2c(c1)C(=O)N(C1CCC(=O)NC1=O)C2=O", "note": "(stereo not shown) [compound 12, N-(2-(2,6-Dioxopiperidin-3-yl)-1,3-dioxoisoindolin-5-yl)-2-methoxybenzenesulfonamide]", "values": [
      {"measurement": "activity in cells (in words)", "setting": "[1]", "value": "inactive in cells"}
    ]},
    {"smiles": "Cc1ccc(S(=O)(=O)Nc2ccc3c(c2)C(=O)N(C2CCC(=O)NC2=O)C3=O)cc1Cl", "note": "(stereo not shown) [compound 9, 3-Chloro-N-(2-(2,6-dioxopiperidin-3-yl)-1,3-dioxoisoindolin-5-yl)-4-methylbenzenesulfonamide]", "values": [
      {"measurement": "activity in cells (in words)", "setting": "[1]", "value": "no effect in cellular assays"}
    ]},
    {"smiles": "Cc1c(Cl)cccc1S(=O)(=O)Nc1ccc2c(c1)C(=O)N(C1CCC(=O)NC1=O)C2=O", "note": "(stereo not shown) [compound 7, 3-Chloro-N-(2-(2,6-dioxopiperidin-3-yl)-1,3-dioxoisoindolin-5-yl)-2-methylbenzenesulfonamide]", "values": [
      {"measurement": "EC50", "setting": "[1]; MV4-11, 72 h, read-out: EC50 (nM) MV4-11", "value": 52, "unit": "nM"},
      {"measurement": "EC50", "setting": "[1]; MV4-11, read-out: MV4-11 EC50 (μM)", "value": 52, "unit": "nM"},
      {"measurement": "EC50", "setting": "[2]", "value": 5010, "unit": "nM"},
      {"measurement": "antiproliferative effect across the five cell lines (in words)", "setting": "[3]", "value": "demonstrated antiproliferative activities across the panel"},
      {"measurement": "IKZF1 degradation after 4 h (in words)", "setting": "[4]", "value": "did not significantly degrade IKZF1"},
      {"measurement": "IKZF1(ZF2)-CRBN/DDB1 complex formation, AlphaScreen signal (in words)", "setting": "[5]", "value": "neither 6 nor 7 showed a signal; also recorded: showed no effect even at the highest concentration"},
      {"measurement": "antiproliferative effect in the presence of lenalidomide (in words)", "setting": "[6]", "value": "abrogating the antiproliferative effects"},
      {"measurement": "antiproliferative activity in the absence of CRBN (in words)", "setting": "[7]", "value": "abolished"},
      {"measurement": "antiproliferation effect in cells expressing GSPT1(G575N) (in words)", "setting": "[8]", "value": "completely abrogated"},
      {"measurement": "degradation of GSPT1(G575N) mutant (in words)", "setting": "[9]", "value": "not degraded"},
      {"measurement": "timepoint at which caspase activation was observed", "setting": "[10]", "value": 24, "unit": "h"},
      {"measurement": "IKZF1 protein levels in GSPT1(G575N) mutant cell line (in words)", "setting": "[14]", "value": "unaffected"},
      {"measurement": "IKZF1 degradation after 4 h (in words)", "setting": "[14]", "value": "did not significantly degrade IKZF1"}
    ]}
  ]
}
